From patent publication US20260327655A1, “SMALL-MOLECULE REGULATED ALTERNATIVE SPLICING” (priority 2023, published 2026) come the findings set out here.

Each structure is given as a SMILES string.

The test system of one experiment is RS1-1 and variants. In words: Luciferase induction assay, RS1-1 and variants in HEK-293T cells. The settings on record: RS1-1, RS1-2, RS1-3, RS1-4, RS1-7, and RS1-9; FIG. 9A; 18 hours. In kind it is cell-based, human. How it is done:
(§1) HEK-293T cells were cultured in DMEM+10% FBS, collected after trypsinization, and dispensed into 96-well plates (cell culture-treated). Each well of the plate was seeded with 1.0×10^5 cells in 100 μL culture medium. After a 1-hour incubation in the tissue culture incubator (5% CO2, 37° C.), plasmid DNA was complexed with a transfection reagent, such as Lipofectamine 3000, and added to respective wells on the plate. Each well received 100 ng of plasmid DNA complexed with 0.15 μL Lipofectamine 3000. The plasmids utilized in the experiment encoded a CMV promoter upstream of the RS1-1 variant that controlled the expression of a Firefly Luciferase gene followed by a SV40 polyadenylation signal. After a 10-minute incubation at room temperature, either DMSO vehicle or a splice modulator compound at specified doses was added to the wells of the plate. Plates were then incubated for 18 hours in a tissue culture incubator. Endpoint analysis was performed by adding 100 μL of a Luciferase substrate, such as Steady-Luc Firefly Luciferase substrate, to each well of the assay plate. The liquid contents of each was transferred to a 96-well plate, mixed again for 2 min on an orbital shaker, and incubated at room temperature for 5 min. Finally, the luminescent signal from each well was measured with a plate reader.

For the next experiment, the system named is RS1-10, HepG2 cells. In words: RS1-10 performance in HepG2 cells. The experiment is classed as cell-based, human. The settings on record: CBA promoter, 18 hours, FIG. 10D. Here is the method:
The human SH-SY5Y neuroblastoma cell line or the human hepatic HepG2 cell line was cultured in EMEM+10% FBS, collected after trypsinization, and then dispensed into 96-well plates (cell culture-treated). Each well of the plate was seeded with 1.0×10^5 cells in 100 μL culture medium. After a 1-hour incubation in the tissue culture incubator (5% CO2, 37 degrees C.), plasmid DNA was complexed with a transfection reagent, such as Lipofectamine 3000, and added to respective wells on the plate. Each well received an equivalent of 100 ng of plasmid DNA complexed with 0.15 μL Lipofectamine 3000 (Opti-MEM I was used as diluent). Triplicate wells were used for each condition tested in the experiment. The plasmids utilized in the human SH-SY5Y neuroblastoma cell line encoded either a CBA promoter or cloned human Synapsin promoter upstream of the RS1-10 construct that controlled the expression of a Firefly Luciferase gene followed by a SV40 polyadenylation signal. The plasmids utilized in the HepG2 cells encoded a CBA promoter upstream of the RS1-10 construct that controlled the expression of a Firefly Luciferase gene followed by a SV40 polyadenylation signal.
After a 10-minute incubation at room temperature, either DMSO vehicle or TA was added to the wells of the plate. […] Finally, the luminescent signal from each well was measured with a plate reader. […]

Experiment [1] has as its system RS3-13 minigene (Firefly Luciferase), HEK-293T cells. In words: Luciferase induction assay, RS3-13 with splice modulator compounds in HEK-293T cells. In kind it is cell-based. The settings on record: Homo sapiens, 18 hours, n of 3, read-out: Mean fold-induction of luciferase (relative to vehicle control). Here is the method: (§2) HEK-293T cells were cultured in DMEM+10% FBS, collected after trypsinization, and then dispensed into 96-well plates (cell culture-treated). Each well of the plate was seeded with 1.0×10^5 cells in 100 μL culture medium. After a 1-hour incubation in a tissue culture incubator (5% CO2, 37 degrees C.), plasmid DNA was complexed with a transfection reagent, such as Lipofectamine 3000, and added to respective wells on the plate. Each well received an equivalent of 100 ng of plasmid DNA complexed with 0.15 μL Lipofectamine. Triplicate wells were used for each condition tested in the experiment. The plasmid utilized in the experiment encoded a CMV promoter upstream of RS3-13 that controlled the expression of a Firefly Luciferase gene followed by a SV40 polyadenylation signal. After a 10-minute incubation at room temperature, either DMSO vehicle or specified compound at specified dose was added to the wells of the plate. Plates were then incubated for 18 hours in a tissue culture incubator. Endpoint analysis was performed by adding 100 uL Steady-Luc Firefly Luciferase substrate to each well of the assay plate. After mixing, the liquid contents of each was transferred to a 96-well plate, mixed again for 2 min on an orbital shaker, and incubated at room temperature for 5 min. Finally, the luminescent signal from each well was measured with a with PerkinElmer Envision plate reader. The results of this assay show RS3-13 responded to the majority of the splice modulator compounds used (FIG. 14D) Bars represent mean+/−standard deviation of 3 wells normalized to vehicle controls.

Experiment [2] concerns RS1-10 minigene (Firefly Luciferase), HEK-293T cells. Kind of experiment: Luciferase induction assay, RS1-10 with splice modulator compounds in HEK-293T cells. The experiment is classed as cell-based. The settings on record: Homo sapiens, 18 hours, n of 3, read-out: Mean fold-induction of luciferase (relative to vehicle control). How it is done:
as §2, with “upstream of the RS I-10 variant that controlled” for “upstream of RS3-13 that controlled”, “assay show RS1-10 responded to” for “assay show RS3-13 responded to”, “compounds used in a dose responsive manner (FIG. 9C).” for “compounds used (FIG. 14D)”, “manner (FIG. 9C). Bars represent” for “used (FIG. 14D) Bars represent”

In experiment [3] the test system is RS2-3 minigene (Firefly Luciferase), HEK-293T cells. In words: Luciferase induction assay, RS2-3 with splice modulator compounds in HEK-293T cells. In kind it is cell-based. Conditions: Homo sapiens, 18 hours, n of 3, read-out: Mean fold-induction of luciferase (relative to vehicle control). Here is the method: as §2, with “of the RS2-3 variant” for “of RS3-13”, “show RS2-3” for “show RS3-13”, “(FIG. 13C)” for “(FIG. 14D)”

In the next experiment the test system is RS2-1 and variants. In words: Luciferase induction assay, RS2-1 and variants in HEK-293T cells. The settings on record: 300 nM (FIG. 13A), 18 hours, FIGS. 13A, 13B. In kind it is cell-based, human. How it is done:
as §1, with “RS2-1 construct and variants” for “RS1-1 variant”, “100B” for “a splice modulator compound”, “reader. […]” for “reader.”

Take `Cc1cn2cc(-c3ccc(-c4ccc(C5CNC5)nn4)c(O)c3)cc(F)c2n1.Cl` [1 A, 2-(6-(azetidin-3-yl)pyridazin-3-yl)-5-(8-fluoro-2-methylimidazo[1,2-a]pyridin-6-yl)phenol, HCl]: in the experiment on RS1-1 and variants, the “fold induction of luciferase” value is “increasing fold induction of luciferase with increasing concentration of splice modulator”. Besides, in the experiment with RS1-10, HepG2 cells, the fold-induction of luciferase result was “showed fold-induction of luciferase”.
As for `Cc1cn2cc(-c3nc(=O)n4cc(N5CCNCC5)ccc4n3)cc(F)c2n1.Cl` [Compound 100B, 2-(8-fluoro-2-methylimidazo[1,2-a]pyridin-6-yl)-7-(piperazin-1-yl)-4H-pyrido[1,2-a][1,3,5]triazin-4-one hydrochloride], the fold induction at 0.1 µM is 10 in experiment [1] (RS3-13, 100 nM); 11.9 in experiment [2] (RS1-10, 100 nM); 9.79 in experiment [3] (RS2-3, 100 nM). Besides, the fold induction at 1 µM was 42.4 in experiment [1] (RS3-13, 1,000 nM); 57.1 in experiment [2] (RS1-10, 1,000 nM); 26.4 in experiment [3] (RS2-3, 1,000 nM). Moreover, the “fold induction of luciferase compared to vehicle, constructs vs RS2-1” value with RS2-1 and variants is “The majority of the constructs show higher fold induction of luciferase”.
